The test system of series [1] is human skin explants. Nature of the series: Depigmentation of human skin explants by NNT activators. The following applies: after 36 hours, DMSO-based carrier, FIGS. 13A-B. The series is classed as cell-based. As for the experimental part: Skin samples considered surgical waste were obtained de-identified from healthy donors (IRB #2013P000093) undergoing reconstructive surgery, according to institutional regulations. Full thickness human abdominal skin explants were cultured in petri dishes with a solid phase and liquid phase phenol red free DMEM medium containing 20% penicillin/streptomycin/glutamine, 5% fungizone (Gibco), and 10% fetal bovine serum. Compounds were applied strictly on top of the explants, making sure no drip occurred into the underlying media. For UV irradiation experiments, a UV lamp (UV Products) was used at 1000 mJ/cm^2 UVB.
The ability of ASS, Usnic acid, 4-hexylresorcinol, candesartan, Nigericin, elaidylphosphocholine, hexitidine, naproxol, and Ginkgolic acid to depigment skin was tested in human skin explants. A DMSO-based carrier solution was used. DMSO was used as a negative control. […]

A further series deals with human skin. Nature of the series: Topical treatment of a human subject (skin type 2). The class given is in vivo. Particulars: 100 uM in DMSO, 15 days, twice per day. On the procedure: A human subject with skin type 2 was treated with Hexetidine 100 uM in DMSO for 15 days, twice per day, individual.
The next series concerns NNT. Put plainly: Immunoblot of NNT after redox modulators. The class given is cell-based, human. Particulars: UACC257, NAC 5 mM, MitoTEMPO 20 μM, H2O2 100 μM, daily for 72 hours. On the procedure: Immunoblotting: Whole-cell protein lysates were prepared using RIPA lysis buffer (Sigma-Aldrich, #R0278) supplemented with Protease and Phosphatase Inhibitor (ThermoFisher Scientific, #P178445). Protein concentrations were quantified using the Pierce BCA protein assay (ThermoFisher Scientific, #23225). Immunoblotting was performed by standard techniques using 4-15% Criterion TGX Precast Midi Protein gels (Bio-Rad Laboratories, #5671084) and transferring to 0.2 μm nitrocellulose membranes (Bio-Rad Laboratories, #1620112). Membranes were blocked with 5% non-fat milk (Boston BioProducts, #P-1400) in PBS containing 0.1% […] and incubated with one of the following primary antibodies at the indicated dilution (antibody sources are in the Key Resources Table): 1:20 dilution of anti-MITF monoclonal antibody CS, 1:1,000 dilution of anti-Tyrosinase clone T311, 1:1,000 dilution of anti-Mitofusin-2 antibody [6A8], 1:500 dilution of TRP2/DCT antibody, 1:1,000 dilution of anti-NNT antibody [8B4BB10], 1:1,000 dilution of anti-IDH1 ([…]) antibody, 1:1,000 dilution of p53 antibody [PAb 240], 1:1,000 dilution of TYRP1 antibody [EPR21960], 1:1,000 dilution of mouse monoclonal antibody Pmel17 (E-7), or 1:1,000 dilution of LC3B (D11) rabbit monoclonal antibody. Incubation with the appropriate secondary antibody followed, either a 1:5,000 dilution of donkey anti-Rabbit IgG-HRP or a 1:3,000 dilution of Amersham ECL mouse IgG, HRP. To verify equal loading of samples, membranes were re-probed with a 1:20,000 dilution of monoclonal anti-β-actin-peroxidase (Sigma Aldrich, #A3854). Protein bands were visualized using Western Lightning Plus ECL (PerkinElmer, #NEL105001EA) and quantified using ImageJ software (NIH).
(A western blot detects proteins with antibodies after separation by electrophoresis.)

The next series has as its system tyrosinase. Nature of the series: Cycloheximide chase assay of tyrosinase protein stability. The following applies: UACC257, 5 mM NAC, 0.1 mM NADPH, 20 μM MitoTEMPO for 48 h, then CHX. The class given is cell-based, human. On the procedure:
Cycloheximide chase assay: 72 h after siRNA transfection (sicontrol or siNNT), UACC257 melanoma cells were treated with a protein synthesis inhibitor, cyclohexamide (CHX, Sigma Aldrich #C7698, 50 μg/ml), for the indicated times and then immediately subjected to immunoblotting for tyrosinase protein expression. The expression of tyrosinase was quantified using ImageJ software based on band intensities and normalized to the intensities of the corresponding β-actin bands. The normalized tyrosinase expression was then defined as relative tyrosinase expression by setting the mean values at t=0 in each experimental group to 1.0. […] The siRNA-transfected cells were cultured for an additional 48 h in the presence of these agents and then examined by the CHX chase assay as described above. pLJM-1-EGFP or pLJM1-NNT/FLAG was introduced into UACC257 cells using Lipofectamine 3000, 48 after transfection, the transfection medium was replaced with fresh medium containing DMSO or 10 μM MG132 (Sigma Aldrich #M8699) and pre-incubated for 6 h. Then. CHX was added to assess tyrosinase protein stability as described above.

Series [2] has as its system primary human melanocytes. Nature of the series: Melanosome maturation by transmission electron microscopy. The class given is cell-based. The following applies: NAC 5 mM or MitoTEMPO 20 μM; for siNNT-induced melanosome maturation: daily for 96 h; for total number of melanosomes per um^2: daily for 96 hours. As for the experimental part:
Transmission electron microscopy: Cultured primary human melanocytes were grown in Medium 254 in 6-well transwell plates. Ninety-six h post siRNA or overexpression treatment, the cells were fixed with a modified Kamovsky's fixative (2% paraformaldehyde/2.5% glutaraldehyde in 0.1 M sodium cacodylate buffer, pH 7.4) for at least 2 h on a gentle rotator, followed by rinsing several times with 0.1 M cacodylate buffer. Then, the cells were treated with 1% osmium tetroxide/0.1 M cacodylate buffer for 1 h, rinsed thoroughly in 0.1 M cacodylate buffer, scraped, and the cell suspensions were transferred into 15 ml centrifuge tubes and centrifuged (3,000 rpm) for 15 min at 4° C.). Pelleted material was embedded in 2% agarose, dehydrated through an ethanol gradient (series of solutions from 30% to 100% ethanol), dehydrated briefly in 100% propylene oxide, then allowed to infiltrate overnight on a gentle rotator in a 1:1 mix of propylene oxide and Eponate resin (Ted Pella, Inc., kit with DMP30, #18010′). The following day, specimens were transferred into fresh 100% Eponate resin for 2-3 hours, then embedded in flat molds in 100% fresh Eponate resin, and embeddings were allowed to polymerize for 24-48 h at 60° C. Thin (70 nm) sections were cut using a Leica EM UC7 ultramicrotome, collected onto formvar-coated grids, stained with 2% uranyl acetate and Reynold's lead citrate, and examined in a JEOL JEM 1011 transmission electron microscope at 80 kV. Images were collected using an AMT digital imaging system with proprietary image capture software (Advanced Microscopy Techniques, Danvers, MA). Measurements of distances between melanosomes and mitochondria were quantified in FIJI (ImageJ) (Schindelin et al., 2012) by applying a customized macro to TEM micrographs. Melanosomes (N=˜50) were randomly selected for each condition within the whole image data set. Thirty Euclidean distances from the melanosome surface to the closest mitochondria surface were measured in nm. From these 30 single measurements the mean was calculated to give a final single mean value per melanosome-mitochondria event. A total of ˜50 events (N) were quantified per condition. Data were plotted and statistically analyzed using Prism 8 (Version 8.4.3). […] Cell area (μm^2), number of melanosome-mitochondria contacts, and number of mitochondria were quantified in FIJI (ImageJ) using polygon and multi-point selection tools. Melanosome identification and quantification were performed with images at 40,000× magnification or higher. […] All identifiable melanosomes in 4 cells per condition were quantified and classified, and the proportions of each stage were normalized to cell cytosolic area (determined by ImageJ).

Another series has as its system UACC257 cells. Nature of the series: siNNT-induced pigmentation with antioxidants, melanin content. The class given is cell-based, human. The following applies: NAC 5 mM, MitoTEMPO 20 μM daily for 72 h; NADPH 0.1 M. On the procedure: (§1) sIRNA transfection: A single treatment of 10 nmol/L of siRNA was delivered to a 60% confluent culture by transfection with Lipofectamine RNAiMAX (Life Technologies, #13778150) according to the manufacturer's recommendations. After 48-72 h of transfection, total RNA or protein was harvested. Melanin quantification: Equal numbers of cells were plated in 6-well plates. The cells were then harvested 72-96 hours post siRNA or NNT inhibitors compounds, as indicated in the legends, pelleted, washed in PBS and counted. 10^6 cells were used for measurement of protein concentration with the Pierce BCA protein assay (Thermo Fisher Scientific, #23225) and 10^6 cells were resuspended in 60 μl of 1 N NaOH solution and incubated at 60° C. for 2 h or until the melanin was completely dissolved. After cooling down to room temperature, samples were centrifuged at 500×g for 10 min and the supernatants were loaded onto a 96-well plate. The melanin content was determined by measuring the absorbance at 405 nm on an Envision plate reader, compared with a melanin standard (0 to 50 μg/ml; Sigma Aldrich, #M8631). Melanin content was expressed as micrograms per milligram of protein.

A further series deals with murine Melan-A cells. Nature of the series: Melanin content of Melan-A cells with NNT inhibitors. The class given is cell-based, mouse. The following applies: 2 mM, FIG. 3A. As for the experimental part:
Murine Melan-A (Bennett et al., 1987) cells were obtained from the Wellcome Trust Functional Genomics Cell Bank. Melan-A cells were grown in RPMI 1640 supplemented with 10% FBS or FetalPlex (Gemini Bio-Products, #100-602), 100,000 U/L penicillin, 100 mg/L streptomycin sulphate, 100× Glutamax, and 200 nM TPA.
In vitro culture with NNT inhibitors: 2,3-Butanedione 97% (2,3 BD) (Sigma Aldrich, #B85307) (1 μM, 10 μM, 100 μM, 2 mM), N,N-Dicyclohexylcarbodiimide (DCC) (Sigma Aldrich, #D80002) (1 mM, 2 mM, 10 mM), and Palmitoyl coenzyme A lithium salt (Sigma Aldrich, #P9716) (10 μM, 2 mM) were reconstituted with DMSO (American Type Culture Collection, 4-X).
as §1, with “Melanin” for “sIRNA transfection: A single treatment of 10 nmol/L of siRNA was delivered to a 60% confluent culture by transfection with Lipofectamine RNAiMAX (Life Technologies, #13778150) according to the manufacturer's recommendations. After 48-72 h of transfection, total RNA or protein was harvested. Melanin”

In series [3] the test system is human skin explants. Nature of the series: Pigmentation of human skin explants with topical NNT inhibitors. The following applies: human skin explants, data not shown.
Series [4] concerns human melanocytes, dermal fibroblasts, and keratinocytes. Nature of the series: Cell viability of human skin cells with NNT inhibitors. The following applies: up to 10 μM, FIG. 10B. The series is classed as cell-based. As for the experimental part:
Primary human keratinocytes were cultured in EpiLife® medium supplemented with human keratinocyte growth supplement (HKGS, ThermoFisher Scientific). Primary human fibroblasts were cultured in medium 106 supplemented with low serum growth supplement (LSGS, ThermoFisher Scientific). 10^6 and […] cells were plated per well of 6-well and 96-well plates, respectively. Drugs indicated in the figure legends were dissolved in DMSO and added 1:1000 to the culture media for 24 h at the concentrations indicated.
Cell viability assay: Human melanoma cell lines and isolated primary cultured human melanocytes were propagated and tested in early passage (Passages 7 to 9). The effects of NNT inhibitors (2,3BD, DCC, and Palmitoyl coenzyme A lithium salt) on cell viability were evaluated by the CellTiter-Glo Luminescent Cell Viability Assay (Promega, #G7570) and measurement of luminescence was performed on an EnVision 2104 Multilabel Reader (PerkinElmer). Human melanoma cell lines and primary melanocytes were plated on 96-well white plates (10,000 cells/well) and were treated with the NNT inhibitors at the indicated concentrations for 24 h.

Take `CCCCC(CC)CN1CN(CC(CC)CCCC)CC(C)(N)C1` (centres unmarked) [Hexetidine, 1,3-bis(2-ethylhexyl)-5-methyl-1,3-diazinan-5-amine]: the “ability to depigment skin” value in the series with human skin explants [1] is “depigmenting effects”. Further, in the series with human skin, the “depigmentation of human skin” value is given as “successful depigmentation” and the irritation result is listed as “without significant irritation”.
For the compound `CC1(C)CC(NC(=O)C[P+](c2ccccc2)(c2ccccc2)c2ccccc2)CC(C)(C)N1[O]` [MitoTEMPO], the NNT protein levels entry in the series with NNT was “did not impact NNT protein levels”. Also, in the series with tyrosinase, the “siNNT-increased tyrosinase protein stability” value is “prevented”. Also, in series [2], the siNNT-induced melanosome maturation entry was “prevented the siNNT-induced phenotype” and the “total number of melanosomes per um^2” value is listed as “not altered”. Moreover, the “siNNT-mediated increase in pigmentation” value with UACC257 cells is given as “inhibited the siNNT-mediated increase in pigmentation”.
On the same counts, the results for `CC(=O)N[C@@H](CS)C(=O)O` [NAC, N-acetylcysteine] are “did not impact NNT protein levels”, “prevented”, “prevented the siNNT-induced phenotype”, “not altered” and “inhibited the siNNT-mediated increase in pigmentation”.
`CCCCCCCCCCCCCCCC(=O)SCCNC(=O)CCNC(=O)[C@H](O)C(C)(C)COP(=O)(O)OP(=O)(O)OC[C@H]1O[C@@H](n2cnc3c(N)ncnc32)[C@H](O)[C@@H]1OP(=O)(O)O.[Li]` [Palmitoyl-CoA, Palmitoyl coenzyme A lithium salt]: the melanin content result with murine Melan-A cells is recorded as “not”. Moreover, in the series on human skin explants [3], the effect on pigmentation result is on record as “no effect on pigmentation” and the “penetration of the epidermis” value is given as “did not penetrate the epidermis”. The “toxicity (viability)” value in series [4] is given as “no significant toxicity”.

(Values after US20240307283A1, “COMPOSITIONS AND METHODS FOR DECREASING PIGMENTATION” (The General Hospital Corporation, priority 2021, published 2024).)
